Data from ChEMBL document CHEMBL1201862, “PubChem BioAssay data set” (2004).
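Each compound was tested at five concentrations against cells in 96-well plates for 48 hours. The concentration for 50% growth inhibition is given as GI50.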 Active and inactive are the calls of the source. Rule as the data show it: active = GI50 up to about 1.1 µM and inactive = higher.

Legend:
Assay in all cases: growth of human tumour cells (NCI), 48 h
T47D = tested on: T47D
OVCAR-4 = tested on: OVCAR-4
K562 = tested on: K562
UACC-62 = tested on: UACC-62
Malme-3M = tested on: Malme-3M
OVCAR-8 = tested on: OVCAR-8
NCI-H522 = tested on: NCI-H522
SK-MEL-2 = tested on: SK-MEL-2
EKVX = tested on: EKVX
SK-MEL-28 = tested on: SK-MEL-28
SK-OV-3 = tested on: SK-OV-3
MDA-N = tested on: MDA-N
HCT-15 = tested on: HCT-15
BT-549 = tested on: BT-549
NCI/ADR-RES = tested on: NCI/ADR-RES
IGROV-1 = tested on: IGROV-1
SN12C = tested on: SN12C
SF-539 = tested on: SF-539
A549 = tested on: A549
U-251 = tested on: U-251
HCC 2998 = tested on: HCC 2998
M14 = tested on: M14
DU-145 = tested on: DU-145
SF-268 = tested on: SF-268
HOP-62 = tested on: HOP-62
HL-60 = tested on: HL-60
OVCAR-3 = tested on: OVCAR-3
RPMI-8226 = tested on: RPMI-8226
HCT-116 = tested on: HCT-116
UACC-257 = tested on: UACC-257
HOP-92 = tested on: HOP-92
MOLT-4 = tested on: MOLT-4
MCF7 = tested on: MCF7
OVCAR-5 = tested on: OVCAR-5
A498 = tested on: A498
KM12 = tested on: KM12
SNB-75 = tested on: SNB-75
CCRF-CEM = tested on: CCRF-CEM
RXF 393 = tested on: RXF 393
SK-MEL-5 = tested on: SK-MEL-5
LOX IMVI = tested on: LOX IMVI
SW-620 = tested on: SW-620
TK-10 = tested on: TK-10
MDA-MB-231 = tested on: MDA-MB-231
786-0 = tested on: 786-0
NCI-H226 = tested on: NCI-H226
NCI-H460 = tested on: NCI-H460
SF-295 = tested on: SF-295
COLO 205 = tested on: COLO 205
PC-3 = tested on: PC-3
SNB-19 = tested on: SNB-19
ACHN = tested on: ACHN
Hs-578T = tested on: Hs-578T
HT-29 = tested on: HT-29
NCI-H23 = tested on: NCI-H23
MDA-MB-435 = tested on: MDA-MB-435
CAKI-1 = tested on: CAKI-1
UO-31 = tested on: UO-31
SR = tested on: SR

For `COc1ccccc1/C=C\c1cnnc2ccccc12`, the GI50 (T47D) was > 10 µM (inactive), the GI50 (OVCAR-4) was > 10 µM (inactive) and the GI50 (K562) was 4.7 µM (inactive). For the same compound, the GI50 (UACC-62) was > 10 µM (inactive), the GI50 (Malme-3M) was > 10 µM (inactive) and the GI50 (OVCAR-8) was > 10 µM (inactive). The GI50 (NCI-H522) was > 10 µM (inactive), the GI50 (SK-MEL-2) was > 10 µM (inactive) and the GI50 (EKVX) was 8.79 µM (inactive). The GI50 (SK-MEL-28) was > 10 µM (inactive), the GI50 (SK-OV-3) was > 10 µM (inactive) and the GI50 (MDA-N) was 3.33 µM (inactive). For the same compound, the GI50 (HCT-15) was greater than 10 µM, the GI50 (BT-549) was > 10 µM (inactive) and the GI50 (NCI/ADR-RES) was > 10 µM (inactive). The GI50 (IGROV-1) was 8.63 µM (inactive), the GI50 (SN12C) was > 10 µM (inactive) and the GI50 (SF-539) was > 10 µM (inactive). The GI50 (A549) was > 10 µM (inactive), the GI50 (U-251) was > 10 µM (inactive) and the GI50 (HCC 2998) was > 10 µM (inactive). The GI50 (M14) was > 10 µM (inactive), the GI50 (DU-145) was > 10 µM (inactive) and the GI50 (SF-268) was > 10 µM (inactive). For the same compound, the GI50 (HOP-62) was > 10 µM (inactive), the GI50 (HL-60) was > 10 µM (inactive) and the GI50 (OVCAR-3) was > 10 µM (inactive). For the same compound, the GI50 (RPMI-8226) was > 10 µM (inactive), the GI50 (HCT-116) was 5.77 µM (inactive) and the GI50 (UACC-257) was > 10 µM (inactive). The GI50 (HOP-92) was 0.0372 µM (active), the GI50 (MOLT-4) was 6.24 µM (inactive) and the GI50 (MCF7) was 3.56 µM (inactive). For the same compound, the GI50 (OVCAR-5) was > 10 µM (inactive), the GI50 (A498) was > 10 µM (inactive) and the GI50 (KM12) was > 10 µM (inactive). For the same compound, the GI50 (SNB-75) was 9.02 µM (inactive), the GI50 (CCRF-CEM) was 6.59 µM (inactive) and the GI50 (RXF 393) was > 10 µM (inactive). The GI50 (SK-MEL-5) was 6.71 µM (inactive), the GI50 (LOX IMVI) was 3.66 µM (inactive) and the GI50 (SW-620) was > 10 µM (inactive). The GI50 (TK-10) was > 10 µM (inactive), the GI50 (MDA-MB-231) was > 10 µM (inactive) and the GI50 (786-0) was > 10 µM (inactive). For the same compound, the GI50 (NCI-H226) was > 10 µM (inactive), the GI50 (NCI-H460) was > 10 µM (inactive) and the GI50 (SF-295) was > 10 µM (inactive). For the same compound, the GI50 (COLO 205) was > 10 µM (inactive), the GI50 (PC-3) was > 10 µM (inactive) and the GI50 (SNB-19) was > 10 µM (inactive). For the same compound, the GI50 (ACHN) was > 10 µM (inactive), the GI50 (Hs-578T) was > 10 µM (inactive) and the GI50 (HT-29) was 3.77 µM (inactive). The GI50 (NCI-H23) was > 10 µM (inactive), the GI50 (MDA-MB-435) was 3.49 µM (inactive) and the GI50 (CAKI-1) was > 10 µM (inactive).
With `Cn1cc(NC(=O)Nc2cc(C(=O)Nc3cc(C(=O)Nc4ccc(S(=O)(=O)O)c5cc(S(=O)(=O)O)ccc45)n(C)c3)n(C)c2)cc1C(=O)Nc1cc(C(=O)Nc2ccc(S(=O)(=O)O)c3cc(S(=O)(=O)O)ccc23)n(C)c1` the GI50 (T47D) was > 100 µM (inactive), the GI50 (OVCAR-4) was > 100 µM (inactive) and the GI50 (K562) was > 100 µM (inactive). The GI50 (UACC-62) was > 100 µM (inactive), the GI50 (Malme-3M) was > 100 µM (inactive) and the GI50 (OVCAR-8) was > 100 µM (inactive). For the same compound, the GI50 (NCI-H522) was > 100 µM (inactive), the GI50 (EKVX) was 34 µM (inactive) and the GI50 (SK-MEL-28) was > 100 µM (inactive). The GI50 (SK-OV-3) was > 100 µM (inactive), the GI50 (MDA-N) was > 100 µM (inactive) and the GI50 (HCT-15) was greater than 100 µM. The GI50 (BT-549) was > 100 µM (inactive), the GI50 (NCI/ADR-RES) was > 100 µM (inactive) and the GI50 (IGROV-1) was > 100 µM (inactive). The GI50 (SN12C) was > 100 µM (inactive), the GI50 (SF-539) was > 100 µM (inactive) and the GI50 (A549) was 85.7 µM (inactive). The GI50 (U-251) was > 100 µM (inactive), the GI50 (HCC 2998) was > 100 µM (inactive) and the GI50 (M14) was > 100 µM (inactive). For the same compound, the GI50 (DU-145) was > 100 µM (inactive), the GI50 (SF-268) was > 100 µM (inactive) and the GI50 (HOP-62) was > 100 µM (inactive). The GI50 (UO-31) was > 100 µM (inactive), the GI50 (SR) was > 100 µM (inactive) and the GI50 (HL-60) was > 100 µM (inactive). For the same compound, the GI50 (OVCAR-3) was > 100 µM (inactive), the GI50 (RPMI-8226) was > 100 µM (inactive) and the GI50 (HCT-116) was > 100 µM (inactive). For the same compound, the GI50 (UACC-257) was > 100 µM (inactive), the GI50 (HOP-92) was 51.9 µM (inactive) and the GI50 (MOLT-4) was > 100 µM (inactive). For the same compound, the GI50 (MCF7) was > 100 µM (inactive), the GI50 (OVCAR-5) was > 100 µM (inactive) and the GI50 (KM12) was > 100 µM (inactive). For the same compound, the GI50 (SNB-75) was > 100 µM (inactive), the GI50 (CCRF-CEM) was > 100 µM (inactive) and the GI50 (RXF 393) was > 100 µM (inactive). For the same compound, the GI50 (SK-MEL-5) was > 100 µM (inactive), the GI50 (SW-620) was > 100 µM (inactive) and the GI50 (TK-10) was 83.8 µM (inactive). The GI50 (MDA-MB-231) was > 100 µM (inactive), the GI50 (786-0) was > 100 µM (inactive) and the GI50 (NCI-H226) was > 100 µM (inactive). The GI50 (NCI-H460) was > 100 µM (inactive), the GI50 (SF-295) was > 100 µM (inactive) and the GI50 (COLO 205) was > 100 µM (inactive). For the same compound, the GI50 (PC-3) was > 100 µM (inactive), the GI50 (SNB-19) was > 100 µM (inactive) and the GI50 (ACHN) was > 100 µM (inactive). For the same compound, the GI50 (Hs-578T) was > 100 µM (inactive), the GI50 (HT-29) was > 100 µM (inactive) and the GI50 (NCI-H23) was > 100 µM (inactive). For the same compound, the GI50 (MDA-MB-435) was > 100 µM (inactive).
